Assay results published in the supplement of paper PMC4862054.

How the values were obtained:
Conditions in all cases: incubation time: 72 h
[1] = test system: BT-474; test: normalised viability (% of control), CellTiter-Blue; higher = more viable cells (about 100 = DMSO control)
Outline: (§1)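 The reported figure is normalised viability at a single listed concentration of the series. Breast cancer cell lines (20 µl suspension) went onto 384-well plates holding compound in 5 µl medium for 72 h. CellTiter-Blue (2.5 µl, 2 h, 37 °C) was read by fluorescence at 560/590 nm, and each plate was scaled to vehicle at 100 and a positive kill control at 0.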

[2] = test system: BT-549; test: as above
Outline: as §1

[3] = test system: DU-4475; test: as above
Outline: as §1

[4] = test system: HCC1143; test: as above
Outline: as §1

[5] = test system: HCC1599; test: as above
Outline: as §1

[6] = test system: HCC1937; test: as above
Outline: as §1

[7] = test system: MDA-MB-436; test: as above
Outline: as §1

[8] = test system: BT-474; test: drug sensitivity score (DSS), CellTiter-Blue viability (DSS (AUC-based score)); higher = stronger viability inhibition; extreme values may be limits of the assay
Experimental: (§2)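 DSRT with the CellTiter-Blue (resazurin reduction) viability readout, fluorescence 560/590 nm, 72 h incubation. Plates were normalised to DMSO and benzethonium chloride controls. DSS is computed from the area under the fitted dose-response curve (5 or 9 concentrations).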

[9] = test system: BT-549; test: as above
Experimental: as §2

[10] = test system: CAL-120; test: as above
Experimental: as §2

[11] = test system: CAL-148; test: as above
Experimental: as §2

[12] = test system: CAL-51; test: as above
Experimental: as §2

[13] = test system: CAL-85-1; test: as above
Experimental: as §2

[14] = test system: DU-4475; test: as above
Experimental: as §2

[15] = test system: HCC1143; test: as above
Experimental: as §2

[16] = test system: HCC1599; test: as above
Experimental: as §2

[17] = test system: HCC1937; test: as above
Experimental: as §2

[18] = test system: HDQ-P1; test: as above
Experimental: as §2

[19] = test system: Hs578T; test: as above
Experimental: as §2

[20] = test system: MDA-MB-231; test: as above
Experimental: as §2

[21] = test system: MDA-MB-436; test: as above
Experimental: as §2

[22] = test system: MDA-MB-453; test: as above
Experimental: as §2

[23] = test system: MDA-MB-468; test: as above
Experimental: as §2

[24] = test system: MFM-223; test: as above
Experimental: as §2

[25] = test system: SK-BR-3; test: as above
Experimental: as §2

SMILES	normalised viability ([1]; 10 nM)	normalised viability ([1]; 1000 nM)	normalised viability ([1]; 10000 nM)	normalised viability ([2]; 10 nM)	normalised viability ([2]; 1000 nM)	normalised viability ([2]; 10000 nM)	normalised viability ([3]; 3 nM)	normalised viability ([3]; 30 nM)	normalised viability ([3]; 100 nM)	normalised viability ([4]; 10 nM)	normalised viability ([4]; 1000 nM)	normalised viability ([4]; 10000 nM)	normalised viability ([5]; 10 nM)	normalised viability ([5]; 1000 nM)	normalised viability ([5]; 10000 nM)	normalised viability ([6]; 10 nM)	normalised viability ([6]; 1000 nM)	normalised viability ([6]; 10000 nM)	normalised viability ([7]; 10 nM)	normalised viability ([7]; 1000 nM)	normalised viability ([7]; 10000 nM)	drug sensitivity score [8]	drug sensitivity score [9]	drug sensitivity score [10]	drug sensitivity score [11]	drug sensitivity score [12]	drug sensitivity score [13]	drug sensitivity score [14]	drug sensitivity score [15]	drug sensitivity score [16]	drug sensitivity score [17]	drug sensitivity score [18]	drug sensitivity score [19]	drug sensitivity score [20]	drug sensitivity score [21]	drug sensitivity score [22]	drug sensitivity score [23]	drug sensitivity score [24]	drug sensitivity score [25]
CC(C)(C)c1cnc(CSc2cnc(NC(=O)C3CCNCC3)s2)o1 [SNS-032]	119%	26.5%	35%	94.8%	11.6%	9.46%	101%	86.9%	87.5%	79.7%	17.5%	16.6%	113%	17.4%	22.4%	138%	23.1%	17.1%	105%	16.2%	15.1%	15.2	17.6	18.9	19.6	13.8	22.1	20.1	17.4	18	20.4	21.3	23.1	21.1	15	20	16.5	17.5	22
Cn1cnc2c(F)c(Nc3ccc(Br)cc3Cl)c(C(=O)NOCCO)cc21 [Selumetinib]	104%	105%	104%	109%	101%	95.3%	95.1%	72.5%	43.7%	79.7%	58.2%	49.7%	112%	78.3%	76.3%	65.3%	83.8%	68.6%	113%	59.8%	101%	0	0	0.649	0	0.877	6.78	25.4	12.6	3.63	2.95	4.32	1.17	13.7	0	0	0	0	0
Nc1nc2[nH]cnc2c(=S)[nH]1 [Thioguanine]	112%	113%	102%	94%	106%	49%	120%	112%	116%	92.6%	103%	82.9%	111%	77%	103%	76.3%	86.1%	40.4%	104%	74.5%	65.6%	0	0.924	7.28	2.39	0.794	3.32	0	0	0	3.55	0	2.55	8.63	4.56	0	7.48	0	0.902
